# Measurements: patent US20240246916A1, “7-NITRO-8-HYDROXYQUINOLINE DERIVATIVES, PREPARATION METHOD THEREFORE AND MEDICAL USE THEREOF” (Jiangsu Yahong Meditech Co., Ltd., priority 2021, published 2024)
# How the values were obtained:
# Format in all cases: cell-based
# [1] = MIC by micro broth dilution (CLSI), Klebsiella pneumoniae; settings: for MIC50 / MIC90: Standard strain; for MIC: Standard strain ATCC43816
# Text: The test bacteria were one strain of clinically isolated carbapenem-resistant Escherichia coli, two strains of carbapenem-resistant Acinetobacter baumannii, two strains of methicillin-resistant Staphylococcus aureus, two strains of sensitive Staphylococcus aureus, and 7 strains of Klebsiella pneumoniae. Duplicate strains isolated from the same patient were eliminated. There were also […] quality control strains Escherichia coli ATCC25922, Acinetobacter baumannii ATCC19606, Staphylococcus aureus ATCC29213, Klebsiella pneumoniae ATCC BAA-1705, ATCC 43816, ATCC BAA-2472, ATCC-BAA-1898, ATCC-BAA-1899, NCTC 13440 and ATCC-BAA-2470. There were 24 strains in total.
# According to the recommendations of relevant documents of the American Clinical and Laboratory Standards Institute (CLSI), the micro broth dilution method was used to determine the MIC of the compounds of the present invention against clinically isolated strains. • 3.1 Formulation of antibacterial drug: All the compounds of the present invention were dissolved in DMSO. The drug concentration range was 128 mg/L to 0.06 mg/L. • 3.2 Culture medium: The drug susceptibility test used cation adjusted Mueller-Hinton broth (CAMHB). • 3.3 Amount of inoculum: The test bacteria cultured overnight were adjusted to 0.5 McFarland turbidity by the direct colony suspension method, and diluted 100 folds, the final inoculum amount was 10^5 CFU/mL. • 3.4 Culture conditions: The test bacteria were cultured at 35±2° C. for 20 hours in air.
# The drug susceptibility test results were interpretated by reference to CLSI 2019 M100 29th edition criteria.
# The quality control strains of the drug susceptibility test were Escherichia coli ATCC 25922, Acinetobacter baumannii ATCC 19606, Staphylococcus aureus ATCC 29213, Klebsiella pneumoniae ATCC BAA-1705, ATCC 43816, ATCC BAA-2472, ATCC-BAA-1898, ATCC-BAA-1899, NCTC 13440 and ATCC-BAA-2470.
# The results of drug susceptibility test were statistically analyzed by WHONET software (version 5.6).
# [2] = system: Acinetobacter baumannii (carbapenem-resistant clinical isolates; ATCC19606); assay: MIC by micro broth dilution (CLSI), Acinetobacter baumannii; settings: Acinetobacter baumannii; for MIC50 / MIC90: ATCC19606, Clinical strain; for MIC50: read-out: MIC50; for MIC90: read-out: MIC90; for MIC: Standard strain ATCC19606, read-out: MIC
# Procedure, shortened: (§1)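 CLSI broth microdilution in cation-adjusted Mueller-Hinton broth, compounds in DMSO at 128 to 0.06 mg/L. Inoculum 10^5 CFU/mL from 0.5 McFarland suspensions diluted 100-fold; 35±2 °C, 20 h in air. Clinical isolates plus ATCC/NCTC quality-control strains; interpretation per CLSI 2019 M100.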
# [3] = system: Endothelial cell line HUVEC; assay: Inhibitory activity on cells, CellTiter-Glo viability, HUVEC; settings: Homo sapiens, 72 hours treatment
# Procedure, shortened: (§2)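 HUVEC seeded at 2000, UM-UC-3 and RM-1 at 3000, LNCaP at 5000 cells/well, each in its own medium, 24 h before dosing. Compounds: 8-point 2.5-fold dilutions from 100 μmol, 72 h at 37 °C, 5% CO2. CellTiter-Glo luminescence; IC50 from growth-inhibition curves.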
# [4] = system: Prostate cancer cell line LNcaP; assay: Inhibitory activity on cancer cells, CellTiter-Glo viability, LNcaP; settings: Homo sapiens, 72 hours treatment
# Procedure, shortened: as §2
# [5] = system: Staphylococcus aureus (methicillin-resistant and sensitive clinical isolates; ATCC29213); assay: MIC by micro broth dilution (CLSI), Staphylococcus aureus; settings: for MIC50 / MIC90: Clinical strain; for MIC50: read-out: MIC50; for MIC90: read-out: MIC90; for MIC: Standard strain ATCC29213, read-out: MIC
# Procedure, shortened: as §1
# [6] = system: Escherichia coli (carbapenem-resistant clinical isolate; ATCC25922); assay: MIC by micro broth dilution (CLSI), Escherichia coli; settings: Escherichia coli; for MIC50 / MIC90: ATCC25922, Clinical strain; for MIC50: read-out: MIC50; for MIC90: read-out: MIC90; for MIC: Standard strain ATCC25922, read-out: MIC
# Procedure, shortened: as §1
# [7] = system: Mouse prostate cancer cell line RM1; assay: Inhibitory activity on cancer cells, CellTiter-Glo viability, RM1; settings: 72 hours treatment
# Procedure, shortened: as §2
# [8] = system: Bladder cancer cell line UM-UC-3; assay: Inhibitory activity on cancer cells, CellTiter-Glo viability, UM-UC-3; settings: Homo sapiens, UMUC3, 72 hours treatment
# Procedure, shortened: as §2
Structure (SMILES),MIC50 [1] [µg/mL],MIC90 [1] [µg/mL],MIC [1] [µg/mL],MIC50 [2] [µg/mL],MIC90 [2] [µg/mL],MIC [2] [µg/mL],IC50 [4] [µM],MIC50 [5] [µg/mL],MIC90 [5] [µg/mL],MIC50 [6] [µg/mL],MIC90 [6] [µg/mL],MIC [6] [µg/mL],IC50 [7] [µM],IC50 [8] [µM],MIC [5] [µg/mL],IC50 [3] [µM]
"Cc1cc2cccnc2c(O)c1[N+](=O)[O-] [Example 2, 6-Methyl-7-nitroquinolin-8-ol]",32,64,–,8,8,–,5.97,4,4,16,64,8,–,3.88,–,7.06
"O=[N+]([O-])c1ccc2c(C3CC3)ccnc2c1O [Example 11, 4-Cyclopropyl-7-nitroquinolin-8-ol]",64,64,–,16,128,> 128,1.67,8,8,8,128,> 128,3.42,2.71,4,2.97

# Second part, led by results:
MIC50 [1] [µg/mL],MIC90 [1] [µg/mL],MIC [1] [µg/mL],MIC50 [2] [µg/mL],MIC90 [2] [µg/mL],MIC [2] [µg/mL],IC50 [4] [µM],MIC50 [5] [µg/mL],MIC90 [5] [µg/mL],MIC50 [6] [µg/mL],MIC90 [6] [µg/mL],MIC [6] [µg/mL],IC50 [7] [µM],IC50 [8] [µM],MIC [5] [µg/mL],Structure (SMILES),IC50 [3] [µM]
16,64,8,4,8,16,10.9,4,4,16,16,8,8.13,9.33,–,"O=[N+]([O-])c1ccc2cccnc2c1O [Example 1, 7-Nitroquinolin-8-ol]",14.9
32,32,–,8,16,–,9.3,8,8,4,4,–,3.18,3.77,–,"Cc1cnc2c(O)c([N+](=O)[O-])ccc2c1 [Example 8, 3-Methyl-7-nitroquinolin-8-ol]",5.7
> 64,> 64,–,32,64,–,–,16,16,32,32,–,–,–,–,"Cc1ccnc2c(O)c([N+](=O)[O-])ccc12 [Example 10, 4-Methyl-7-nitroquinolin-8-ol]",–
8,16,4,4,4,2,5.1,4,4,8,16,4,4.3,9.2,4,"O=[N+]([O-])c1ccc(O)c2ncccc12 [Nitroxoline, nitroxoline, reference compound]",4.5
